The results in this text go back to patent US10662195B2, “Protein kinase conjugates and inhibitors” (Celgene Avilomics Research, Inc., priority 2009, dated 2020).

Structures are written as SMILES. Like-named read-outs stand apart in the source and are kept apart here.

In one assay the target is KDR (Homo sapiens, UniProt P35968). Nature of the assay: KDR Omnia continuous-read kinase assay. Further details: purchased Invitrogen or BPS Bioscience PV3660 or 40301. It counts as biochemical. The method, then:
(§1) A. KDR and FLT-3 Omnia Assay for Potency Assessment:
(§2) The protocol below describes a continuous-read kinase assay to measure inherent potency of Avila Therapeutics' compounds against active KDR and FLT-3 enzymes. The assay was performed substantially as described by the vendor (Invitrogen, Carlsbad, Calif.; http://www.invitrogen.com/content.cfm?pageid=11338.)
Briefly, 10× stocks of KDR from Invitrogen or BPS Bioscience (PV3660 or 40301) and FLT-3 (PV3182) enzymes, 1.13×ATP (AS001A) and Y9-Sox or Y12-Sox peptide substrates (KCZ1001) were prepared in 1× kinase reaction buffer consisting of 20 mM Tris, pH 7.5, 5 mM MgCl2, 1 mM EGTA, 5 mM β-glycerophosphate, 5% glycerol (10× stock, KB002A) and 0.2 mM DTT (DS001A). 5 μL of enzyme were pre-incubated in a Corning (#3574) 384-well, white, non-binding surface microtiter plate (Corning, N.Y.) for 30 min at 27° C. with a 0.5 μL volume of 50% DMSO and serially diluted compounds prepared in 50% DMSO. Kinase reactions were started with the addition of 45 μL of the ATP/Y9 or Y5-Sox peptide substrate mix and monitored every 30-90 seconds for 60 minutes at λex360/λem485 in a Synergy^4 plate reader from BioTek (Winooski, Vt.). At the conclusion of each assay, progress curves from each well were examined for linear reaction kinetics and fit statistics (R^2, 95% confidence interval, absolute sum of squares). Initial velocity (0 minutes to 20+ minutes) from each reaction was determined from the slope of a plot of relative fluorescence units vs time (minutes) and then plotted against inhibitor concentration to estimate IC50 from Log [Inhibitor] vs Response, Variable Slope model in GraphPad Prism from GraphPad Software (San Diego, Calif.). […]
(§3) The reported IC50_APP and IC50 values are in units of nM.

The target in the next assay is CKIT D816V (Homo sapiens, UniProt P10721, D816V). Nature of the assay: c-Kit mutant Omnia kinase assay. The format is biochemical. To be noted: read-out: IC50_APP CKIT D816V.
Assay [1] concerns CKIT. Nature of the assay: cKIT washout assay in GIST882 cells (C-kit phosphorylation, western blot). The format is cell-based. Particulars: 1 uM for 90 minutes, then washed free of compound. The method, then: GIST882 cells (See, Bauer et al., Cancer Research, 66(18):9153-9161 (2006)) were seeded in a 6 well plate at a density of 8×10^5 cells/well in complete media. The next day cells were treated with 1 uM compound diluted in complete media for 90 minutes. After 90 minutes, the media was removed and cells were washed with compound-free media. Cells were washed every 2 hours and resuspended in fresh compound-free media. Cells were collected at specified time points, lysed in Cell Extraction Buffer (Invitrogen FNN0011) supplemented with Roche complete protease inhibitor tablets (Roche 11697498001) and phosphatase inhibitors (Roche 04 906 837 001) and lysates were sheared by passing through a 28.5 gauge syringe 10 times each. Protein concentrations were measured and 10 ug total protein lysate was loaded in each lane. C-kit phosphorylation was assayed by western blot with pTyr (4G10) antibody and total kit antibody from Cell Signaling Technology.
Sorafenib and XVIII-11 were tested for cellular activity in a GIST882 cell line at 1 micromolar. The results are depicted in FIGS. 2a and 2b where it is shown that XVIII-11 maintained c-KIT enzyme inhibition in […] cells after “washout” for at least 8 hours. […] In order to understand whether there was a prolonged inhibition with the irreversible inhibitor the cells were washed free of compound. For the reversible inhibitor, Sorafenib, the inhibitory activity of cKIT and downstream signaling was overcome whereas the irreversible inhibition of XVIII-11 persisted for at least 8 hours.
(In general: In western blotting, separated proteins are transferred to a membrane and probed.)

The next assay deals with T1, FLT3 (Homo sapiens, UniProt P36888).
T1 construct: purchased PV3182
T1 sequence (P36888 27-993): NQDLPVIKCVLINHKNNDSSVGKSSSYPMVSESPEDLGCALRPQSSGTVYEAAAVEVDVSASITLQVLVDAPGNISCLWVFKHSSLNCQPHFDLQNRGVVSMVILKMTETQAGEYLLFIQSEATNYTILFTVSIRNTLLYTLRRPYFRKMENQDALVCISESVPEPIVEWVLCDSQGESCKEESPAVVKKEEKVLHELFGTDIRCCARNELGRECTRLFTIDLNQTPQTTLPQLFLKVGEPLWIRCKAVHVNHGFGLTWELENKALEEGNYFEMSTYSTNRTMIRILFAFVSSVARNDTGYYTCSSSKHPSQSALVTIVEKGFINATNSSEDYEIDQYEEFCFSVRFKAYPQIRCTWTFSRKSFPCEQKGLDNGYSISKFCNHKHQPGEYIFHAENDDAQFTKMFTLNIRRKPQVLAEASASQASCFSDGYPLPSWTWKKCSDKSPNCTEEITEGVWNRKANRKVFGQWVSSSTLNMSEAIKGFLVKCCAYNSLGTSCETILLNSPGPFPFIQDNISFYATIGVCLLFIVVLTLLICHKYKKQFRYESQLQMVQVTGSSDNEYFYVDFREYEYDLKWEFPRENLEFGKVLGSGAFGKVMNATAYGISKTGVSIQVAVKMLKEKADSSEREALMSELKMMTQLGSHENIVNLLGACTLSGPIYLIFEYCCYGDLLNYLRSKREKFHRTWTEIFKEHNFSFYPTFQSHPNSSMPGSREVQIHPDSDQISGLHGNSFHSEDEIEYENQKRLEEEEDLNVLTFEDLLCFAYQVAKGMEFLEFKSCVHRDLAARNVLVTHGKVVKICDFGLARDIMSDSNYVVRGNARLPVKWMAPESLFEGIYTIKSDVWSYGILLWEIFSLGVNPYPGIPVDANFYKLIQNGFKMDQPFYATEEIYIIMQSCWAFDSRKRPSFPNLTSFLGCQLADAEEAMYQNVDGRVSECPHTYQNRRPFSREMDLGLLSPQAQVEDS
The assay is described as follows: FLT-3 Omnia continuous-read kinase assay. It counts as biochemical. The method, then: as §1, §2
Briefly, 10× stocks of KDR from Invitrogen or BPS Bioscience (PV3660 or 40301) and FLT-3 (PV3182) enzymes, 1.13×ATP (AS001A) and Y9-Sox or Y12-Sox peptide substrates (KCZ1001) were prepared in 1× kinase reaction buffer consisting of 20 mM Tris, pH 7.5, 5 mM MgCl2, 1 mM EGTA, 5 mM β-glycerophosphate, 5% glycerol (10× stock, KB002A) and 0.2 mM DTT (DS001A). 5 μL of enzyme were pre-incubated in a Corning (#3574) 384-well, white, non-binding surface microtiter plate (Corning, N.Y.) for 30 min at 27° C. with a 0.5 μL volume of 50% DMSO and serially diluted compounds prepared in 50% DMSO. Kinase reactions were started with the addition of 45 μL of the ATP/Y9 or Y5-Sox peptide substrate mix and monitored every 30-90 seconds for 60 minutes at λex360/λem485 in a Synergy^4 plate reader from BioTek (Winooski, Vt.). At the conclusion of each assay, progress curves from each well were examined for linear reaction kinetics and fit statistics (R^2, 95% confidence interval, absolute sum of squares). Initial velocity (0 minutes to 20+ minutes) from each reaction was determined from the slope of a plot of relative fluorescence units vs time (minutes) and then plotted against inhibitor concentration to estimate IC50 from Log [Inhibitor] vs Response, Variable Slope model in GraphPad Prism from GraphPad Software (San Diego, Calif.).
[FLT-3]=15 nM, [ATP]=500 μM and [Y5-Sox peptide]=10 μM (ATP KMapp=470 μM)
as §3

The next assay has as its target T2, PDGFRA (Homo sapiens, UniProt P16234).
T2 construct: purchased PV3811
The assay is described as follows: Assay for PDGFRa (Omnia). The format is biochemical. The method, then: Briefly, 10× stock of PDGFRα (PV3811) enzyme, 1.13×ATP (AS001A) and Y12-Sox peptide substrates (KCZ1001) was prepared in 1× kinase reaction buffer consisting of 20 mM Tris, pH 7.5, 5 mM MgCl2, 1 mM EGTA, 5 mM β-glycerophosphate, 5% glycerol (10× stock, KB002A) and 0.2 mM DTT (DS001A). 5 μL of enzyme were pre-incubated in a Corning (#3574) 384-well, white, non-binding surface microtiter plate (Corning, N.Y.) for 30 min at 27° C. with a 0.5 μL volume of 50% DMSO and serially diluted compounds prepared in 50% DMSO. Kinase reactions were started with the addition of 45 μL of the ATP/Y9 or Y12-Sox peptide substrate mix and monitored every […] for 60 minutes at λex360/λem485 in a Synergy^4 plate reader from BioTek (Winooski, Vt.). At the conclusion of each assay, progress curves from each well were examined for linear reaction kinetics and fit statistics (R2, 95% confidence interval, absolute sum of squares). Initial velocity (0 minutes to 20+ minutes) from each reaction was determined from the slope of a plot of relative fluorescence units vs time (minutes) and then plotted against inhibitor concentration to estimate IC50 from log [Inhibitor] vs Response, Variable Slope model in GraphPad Prism from GraphPad Software (San Diego, Calif.).
[PDGFRα]=2-5 nM, [ATP]=60 μM and [Y9-Sox peptide]=10 μM (ATP KMapp=61 μM)
as §3

Assay [2] has as its target CKIT (Homo sapiens, UniProt P10721). The assay is described as follows: c-Kit Omnia kinase assay. To be noted: reversible reference compounds; read-out: IC50 CKIT. It counts as biochemical.
The mark [3] stands for this setting: 30 min pre-incubation, read-out: IC50_APP KDR.
Where [4] appears, read: 30 min pre-incubation, [ATP]=500 μM, read-out: IC50_APP FLT3.
Where [5] appears, read: 30 min pre-incubation, [ATP]=60 μM, read-out: IC50_APP PDGFRA.

T2 sequence (P16234 24-1089): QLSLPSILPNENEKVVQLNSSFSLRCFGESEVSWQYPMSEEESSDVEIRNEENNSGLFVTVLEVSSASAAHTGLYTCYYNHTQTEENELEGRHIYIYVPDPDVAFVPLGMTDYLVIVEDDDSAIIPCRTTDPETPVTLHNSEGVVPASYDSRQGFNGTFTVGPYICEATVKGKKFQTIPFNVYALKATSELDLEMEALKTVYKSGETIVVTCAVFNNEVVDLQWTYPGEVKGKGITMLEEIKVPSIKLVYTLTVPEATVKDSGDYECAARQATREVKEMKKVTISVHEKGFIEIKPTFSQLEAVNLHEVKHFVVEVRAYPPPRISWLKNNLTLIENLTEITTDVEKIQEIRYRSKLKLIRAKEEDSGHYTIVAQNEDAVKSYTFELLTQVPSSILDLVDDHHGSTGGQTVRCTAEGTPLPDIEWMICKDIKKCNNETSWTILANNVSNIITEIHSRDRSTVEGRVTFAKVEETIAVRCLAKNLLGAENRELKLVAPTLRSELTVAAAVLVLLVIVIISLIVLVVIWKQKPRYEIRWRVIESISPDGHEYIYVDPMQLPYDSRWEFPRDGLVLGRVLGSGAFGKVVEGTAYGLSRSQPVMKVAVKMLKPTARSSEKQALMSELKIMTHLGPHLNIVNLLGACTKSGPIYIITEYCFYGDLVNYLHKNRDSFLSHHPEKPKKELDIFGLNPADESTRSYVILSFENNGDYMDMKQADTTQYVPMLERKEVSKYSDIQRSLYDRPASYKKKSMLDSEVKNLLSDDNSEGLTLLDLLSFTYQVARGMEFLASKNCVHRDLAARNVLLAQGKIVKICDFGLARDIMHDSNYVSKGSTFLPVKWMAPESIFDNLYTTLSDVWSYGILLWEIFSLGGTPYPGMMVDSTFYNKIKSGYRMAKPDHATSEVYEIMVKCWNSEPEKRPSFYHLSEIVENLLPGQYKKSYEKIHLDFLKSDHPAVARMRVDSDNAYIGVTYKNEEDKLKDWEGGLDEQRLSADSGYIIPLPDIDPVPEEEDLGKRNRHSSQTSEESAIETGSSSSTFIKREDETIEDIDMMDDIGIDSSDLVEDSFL
Chain of KDR (P35968 20-1356): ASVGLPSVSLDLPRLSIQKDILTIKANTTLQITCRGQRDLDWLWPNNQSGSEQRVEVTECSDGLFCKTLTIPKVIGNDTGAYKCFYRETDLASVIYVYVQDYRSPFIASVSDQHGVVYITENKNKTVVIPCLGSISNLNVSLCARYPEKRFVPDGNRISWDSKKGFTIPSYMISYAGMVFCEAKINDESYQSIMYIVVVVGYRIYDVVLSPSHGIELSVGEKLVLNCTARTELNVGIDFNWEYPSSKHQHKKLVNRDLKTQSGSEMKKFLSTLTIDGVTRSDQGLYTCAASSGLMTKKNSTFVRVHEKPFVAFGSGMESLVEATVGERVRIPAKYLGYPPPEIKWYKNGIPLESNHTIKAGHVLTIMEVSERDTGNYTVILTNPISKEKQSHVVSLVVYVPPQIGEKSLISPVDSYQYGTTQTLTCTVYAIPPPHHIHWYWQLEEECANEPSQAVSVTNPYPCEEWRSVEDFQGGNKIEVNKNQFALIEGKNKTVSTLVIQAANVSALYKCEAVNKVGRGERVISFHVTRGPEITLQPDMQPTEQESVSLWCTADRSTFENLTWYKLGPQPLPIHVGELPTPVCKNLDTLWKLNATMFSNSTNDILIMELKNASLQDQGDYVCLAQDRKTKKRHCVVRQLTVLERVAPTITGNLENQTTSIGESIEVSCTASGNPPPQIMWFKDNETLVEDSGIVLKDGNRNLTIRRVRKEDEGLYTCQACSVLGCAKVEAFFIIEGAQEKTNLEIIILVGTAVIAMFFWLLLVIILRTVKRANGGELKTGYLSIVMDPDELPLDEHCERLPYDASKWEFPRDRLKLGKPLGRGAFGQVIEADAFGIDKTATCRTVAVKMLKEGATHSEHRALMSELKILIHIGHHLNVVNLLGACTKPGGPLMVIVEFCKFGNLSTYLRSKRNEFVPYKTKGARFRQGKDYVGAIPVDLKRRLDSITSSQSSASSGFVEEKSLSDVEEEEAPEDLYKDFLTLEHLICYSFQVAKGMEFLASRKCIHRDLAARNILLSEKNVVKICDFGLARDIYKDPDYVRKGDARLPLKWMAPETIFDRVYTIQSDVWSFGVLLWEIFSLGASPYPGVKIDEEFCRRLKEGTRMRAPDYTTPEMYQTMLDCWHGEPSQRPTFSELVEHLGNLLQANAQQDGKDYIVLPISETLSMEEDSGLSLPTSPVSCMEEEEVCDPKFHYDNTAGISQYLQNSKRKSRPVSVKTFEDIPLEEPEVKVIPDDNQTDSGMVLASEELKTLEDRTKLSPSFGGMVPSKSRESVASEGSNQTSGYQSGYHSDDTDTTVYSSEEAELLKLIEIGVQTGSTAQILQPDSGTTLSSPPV
Chain of CKIT D816V (P10721 26-976 D816V): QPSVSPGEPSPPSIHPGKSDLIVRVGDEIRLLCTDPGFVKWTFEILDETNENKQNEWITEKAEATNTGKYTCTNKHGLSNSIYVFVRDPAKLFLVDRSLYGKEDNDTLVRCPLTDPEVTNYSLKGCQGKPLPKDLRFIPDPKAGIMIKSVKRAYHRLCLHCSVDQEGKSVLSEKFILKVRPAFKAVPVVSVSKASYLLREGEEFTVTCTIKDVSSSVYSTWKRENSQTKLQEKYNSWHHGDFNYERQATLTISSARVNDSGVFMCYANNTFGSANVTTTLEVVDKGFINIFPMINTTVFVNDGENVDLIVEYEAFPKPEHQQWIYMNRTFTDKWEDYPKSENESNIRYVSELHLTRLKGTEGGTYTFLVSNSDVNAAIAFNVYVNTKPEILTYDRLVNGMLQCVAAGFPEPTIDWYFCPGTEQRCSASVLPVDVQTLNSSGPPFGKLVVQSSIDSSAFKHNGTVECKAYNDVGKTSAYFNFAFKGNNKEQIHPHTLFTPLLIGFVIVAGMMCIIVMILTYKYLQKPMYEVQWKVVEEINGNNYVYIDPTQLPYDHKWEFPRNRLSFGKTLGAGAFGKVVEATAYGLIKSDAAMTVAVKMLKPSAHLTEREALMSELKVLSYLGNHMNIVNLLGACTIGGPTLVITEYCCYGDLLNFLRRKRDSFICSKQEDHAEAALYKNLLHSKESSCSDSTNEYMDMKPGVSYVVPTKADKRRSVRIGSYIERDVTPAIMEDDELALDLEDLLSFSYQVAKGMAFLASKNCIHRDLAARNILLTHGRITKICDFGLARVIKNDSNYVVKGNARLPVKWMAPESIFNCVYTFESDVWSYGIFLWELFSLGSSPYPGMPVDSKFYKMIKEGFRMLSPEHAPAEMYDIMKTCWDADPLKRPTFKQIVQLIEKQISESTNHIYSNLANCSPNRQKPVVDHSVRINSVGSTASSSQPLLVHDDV
Chain of CKIT (Homo sapiens, UniProt P10721) (P10721 26-976): as the sequence (P10721 26-976 D816V) above, with V791D counted along it

For the molecule `C=CC(=O)Nc1ccc(NC(=O)Nc2ccc(Oc3ccnc(C(=O)NC)c3)cc2)cc1C(F)(F)F` [XVIII-11, 4-(4-(3-(4-Acrylamido-3-(trifluoromethyl)phenyl)ureido)phenoxy)-N-methylpicolinamide], the figures for the IC50 at KDR (setting [3]), on CKIT D816V and at FLT3 (setting [4]) were 26.9 nM, 3.42 nM and 1.99 nM, respectively. In addition, the “duration of c-KIT inhibition after washout” value in the assay with CKIT [1] is given as “at least 8 hours”.
Regarding `CNC(=O)c1cc(Oc2ccc(NC(=O)Nc3ccc(NC(=O)CCl)c(C(F)(F)F)c3)cc2)ccn1` [XVIII-13, 4-(4-(3-(4-(2-Chloroacetamido)-3-(trifluoromethyl)phenyl)ureido)phenoxy)-N-methylpicolinamide], the IC50 on PDGFRA (setting [5]) was found to be 0.508 nM; on KDR (setting [3]), 0.95 nM; on FLT3 (setting [4]), 0.508 nM.
Consider `CCC(=O)Nc1ccc(NC(=O)Nc2ccc(Oc3ccnc(C(=O)NC)c3)cc2)cc1C(F)(F)F` [Reversible Reference Compound 3, 4-(4-(3-(4-(Propionamido)-3-(trifluoromethyl)phenyl)ureido)phenoxy)-N-methylpicolinamide, reference compound], for which the IC50 at PDGFRA (reversible reference compounds, read-out: IC50 PDGFRA) came out at 4.15 nM; at KDR (reversible reference compounds, read-out: IC50 KDR) it was 39.4 nM; at CKIT [2] it was 16.3 nM; at FLT3 (reversible reference compounds, read-out: IC50 FLT3), 0.461 nM.
As to `CNC(=O)c1cc(Oc2ccc(NC(=O)Nc3ccc(NC(=O)C(C)Cl)c(C(F)(F)F)c3)cc2)ccn1` (centres unmarked) [XVIII-14, 4-(4-(3-(4-(2-Chloropropionamido)-3-(trifluoromethyl)phenyl)ureido)phenoxy)-N-methylpicolinamide], the values for the IC50 at PDGFRA (setting [5]), on KDR (setting [3]) and on FLT3 (setting [4]) were 1.54 nM, 6.94 nM and 107 nM, respectively.
